The values that follow come from ChEMBL document CHEMBL1255411, “Tat pathway-mediated translocation of the sec pathway substrate protein MexA, an inner membrane component of the MexAB-OprM xenobiotic extrusion pump in Pseudomonas aeruginosa” (2010).

Structures are written as SMILES. ≈ marks a conversion by molar mass, not a printed value.

Holding throughout (format): functional
In experiment [1] the test system is Pseudomonas aeruginosa. The experiment is described as follows: Antibacterial activity against Pseudomonas aeruginosa PAO4290 harboring leu-10 argF10 aph-9004 FP(-).
For experiment [2], the system named is Pseudomonas aeruginosa. The experiment is described as follows: Antibacterial activity against mexA deficient Pseudomonas aeruginosa TNP070 transformant harboring pPlcMexA carrying chimeric mexA gene with plcH signal sequence.
Experiment [3] has as its system Pseudomonas aeruginosa. The experiment is described as follows: Antibacterial activity against tatC deficient Pseudomonas aeruginosa TNP080 transformant harboring pPlcMexA carrying chimeric mexA gene with plcH signal sequence.
For experiment [4], the system named is Pseudomonas aeruginosa. The experiment is described as follows: Antibacterial activity against mexA deficient Pseudomonas aeruginosa TNP070 transformant harboring pMEXA1 carrying wild type mexA gene.
Experiment [5] concerns Pseudomonas aeruginosa. Description: Antibacterial activity against mexA deficient Pseudomonas aeruginosa TNP070.
The subject of experiment [6] is Pseudomonas aeruginosa. The experiment is described as follows: Antibacterial activity against tatC deficient Pseudomonas aeruginosa TNP080 transformant harboring pMEXA1 carrying wild type mexA gene.
In experiment [7] the test system is Pseudomonas aeruginosa. Description: Antibacterial activity against tatC deficient Pseudomonas aeruginosa TNP080.
In experiment [8] the test system is Pseudomonas aeruginosa. Description: Antibacterial activity against tatC deficient Pseudomonas aeruginosa TNP080 transformant harboring pTatPlcMexA carrying entire tatC gene and the chimeric mexA gene.

Consider `C[C@H]1[C@H](NC(=O)/C(=N\OC(C)(C)C(=O)O)c2csc(N)n2)C(=O)N1S(=O)(=O)O` [AZTREONAM], for which the minimal inhibitory concentration (MIC) in experiment [1] came to 4 µg/mL (≈ 9.19 µM); in experiment [2], 2 µg/mL (≈ 4.59 µM); in experiment [3], 0.25 µg/mL (≈ 0.574 µM); in experiment [4] it was 2 µg/mL (≈ 4.59 µM); in experiment [5], 0.25 µg/mL (≈ 0.574 µM); in experiment [6], 2 µg/mL (≈ 4.59 µM). Further, the values for the MIC in experiment [7] and in experiment [8] were 0.13 µg/mL (≈ 0.299 µM) and 2 µg/mL (≈ 4.59 µM), respectively.
For the compound `O=C(N[C@H](CO)[C@H](O)c1ccc([N+](=O)[O-])cc1)C(Cl)Cl` [CHLORAMPHENICOL], the MIC in experiment [1] is 64 µg/mL (≈ 198 µM); in experiment [2] it was 32 µg/mL (≈ 99 µM); in experiment [3], 4 µg/mL (≈ 12.4 µM); in experiment [4], 32 µg/mL (≈ 99 µM); in experiment [5] it was 8 µg/mL (≈ 24.8 µM); in experiment [6] it was 32 µg/mL (≈ 99 µM). The MIC in experiment [7] was 4 µg/mL (≈ 12.4 µM); in experiment [8] it was 32 µg/mL (≈ 99 µM).

By MIC is commonly meant the smallest concentration in the dilution series that meets the test's criterion for growth inhibition. Higher therefore signals weaker potency.
